Measured values from patent US20240180805A1, “COMPOSITION FOR INHIBITING WRINKLE” (YUKI GOSEI KOGYO CO., LTD., priority 2022, published 2024).

Test system: hyaluronic acid synthase (HAS2)
Conditions: β-alanine 10 mM added twice, 24 h apart; total 48 h; relative to β-actin (ΔΔCt); FIG. 1

Q: Which “mRNA of hyaluronic acid synthase in dermal fibroblasts” value does the source give for NCCC(=O)O [β-alanine] here?
A: increased
